# pIC50: −log10 of the molar value. Where two headings read alike, the source gives them in different places.
# Target: GCN2 (Homo sapiens (Human), UniProt Q9P2K8)
# Test: TR-FRET biochemical assay for inhibition of GCN2
# [1] = GCN2 2 nM, 100 nM GFP-eIF2a, 150 μM ATP, TR-FRET
# Sequence of GCN2 (Q9P2K8 whole entry): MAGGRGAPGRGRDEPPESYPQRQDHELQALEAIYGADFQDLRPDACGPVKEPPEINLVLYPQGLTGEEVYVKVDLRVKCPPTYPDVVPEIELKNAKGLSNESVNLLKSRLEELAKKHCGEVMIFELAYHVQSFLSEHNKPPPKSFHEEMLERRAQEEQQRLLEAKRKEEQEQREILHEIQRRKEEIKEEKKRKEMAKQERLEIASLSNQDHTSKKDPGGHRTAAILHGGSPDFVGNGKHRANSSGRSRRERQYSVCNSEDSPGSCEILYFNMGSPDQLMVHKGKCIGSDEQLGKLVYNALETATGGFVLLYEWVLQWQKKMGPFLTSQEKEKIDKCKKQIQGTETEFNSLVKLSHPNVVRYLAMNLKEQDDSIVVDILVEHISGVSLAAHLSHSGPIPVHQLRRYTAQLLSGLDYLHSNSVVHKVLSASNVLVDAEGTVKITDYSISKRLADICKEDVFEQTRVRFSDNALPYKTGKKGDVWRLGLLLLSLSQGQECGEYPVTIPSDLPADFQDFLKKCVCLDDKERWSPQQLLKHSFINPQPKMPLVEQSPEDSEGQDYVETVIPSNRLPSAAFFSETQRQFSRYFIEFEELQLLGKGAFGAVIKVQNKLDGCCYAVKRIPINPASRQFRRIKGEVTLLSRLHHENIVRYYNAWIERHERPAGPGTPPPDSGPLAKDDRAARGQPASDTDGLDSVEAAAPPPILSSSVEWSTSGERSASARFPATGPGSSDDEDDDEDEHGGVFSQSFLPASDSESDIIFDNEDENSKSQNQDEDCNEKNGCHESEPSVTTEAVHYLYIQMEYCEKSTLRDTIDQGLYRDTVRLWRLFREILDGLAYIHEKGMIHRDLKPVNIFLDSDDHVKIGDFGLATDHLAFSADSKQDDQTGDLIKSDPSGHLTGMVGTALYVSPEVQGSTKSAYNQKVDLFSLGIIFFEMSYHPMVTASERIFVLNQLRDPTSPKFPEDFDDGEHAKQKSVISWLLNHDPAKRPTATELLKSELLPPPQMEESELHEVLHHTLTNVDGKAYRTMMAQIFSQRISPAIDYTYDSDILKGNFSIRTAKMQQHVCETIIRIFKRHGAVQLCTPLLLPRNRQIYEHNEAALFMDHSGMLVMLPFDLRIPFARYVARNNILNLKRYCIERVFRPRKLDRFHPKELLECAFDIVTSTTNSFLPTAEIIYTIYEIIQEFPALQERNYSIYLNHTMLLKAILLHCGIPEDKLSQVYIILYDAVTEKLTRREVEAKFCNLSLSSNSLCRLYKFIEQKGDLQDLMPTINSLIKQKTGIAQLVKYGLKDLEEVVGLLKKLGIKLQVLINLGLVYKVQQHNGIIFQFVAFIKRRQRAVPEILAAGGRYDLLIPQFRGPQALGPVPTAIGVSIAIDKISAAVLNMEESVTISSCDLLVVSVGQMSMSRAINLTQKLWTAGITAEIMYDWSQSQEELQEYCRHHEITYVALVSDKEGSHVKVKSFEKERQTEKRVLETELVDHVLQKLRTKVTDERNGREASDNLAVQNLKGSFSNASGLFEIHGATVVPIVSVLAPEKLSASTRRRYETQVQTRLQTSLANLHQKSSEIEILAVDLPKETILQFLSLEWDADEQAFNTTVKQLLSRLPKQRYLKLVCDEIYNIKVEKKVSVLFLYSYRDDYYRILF
SMILES,pIC50 [1],pIC50
"COc1ncc(F)cc1S(=O)(=O)Nc1ccc(F)c(-c2cn3cnc(-c4ncc[nH]4)c3cn2)c1Cl [Compound 151, N-[2-chloro-4-fluoro-3-[1-(1H-imidazol-2-yl)imidazo[1,5-a]pyrazin-6-yl]phenyl]-5-fluoro-2-methoxypyridine-3-sulfonamide]",> 7.30,–
"COc1ncc(Cl)cc1S(=O)(=O)Nc1ccc(F)c(-c2ccc3c(-c4ncc[nH]4)ncn3n2)c1F [Compound 85, 5-chloro-N-[2,4-difluoro-3-[5-(1H-imidazol-2-yl)imidazo[1,5-b]pyridazin-2-yl]phenyl]-2-methoxypyridine-3-sulfonamide]",> 7.30,–
"COc1ncc(F)cc1S(=O)(=O)Nc1ccc(F)c(-c2cn3cnc(-c4nc5ccccc5[nH]4)c3cn2)c1F [Compound 111, N-[3-[1-(1H-1,3-benzodiazol-2-yl)imidazo[1,5-a]pyrazin-6-yl]-2,4-difluorophenyl]-5-fluoro-2-methoxypyridine-3-sulfonamide]",> 7.30,–
"COc1ncc(Cl)cc1S(=O)(=O)Nc1ccc(F)c([C@H]2CCc3c(-c4ncc[nH]4)ncn3C2)c1F [Compound 79-1, 5-chloro-N-[2,4-difluoro-3-[(6R)-1-(1H-imidazol-2-yl)-5H,6H,7H,8H-imidazo[1,5-a]pyridin-6-yl]phenyl]-2-methoxypyridine-3-sulfonamide]",> 7.30,–
"COc1ncc(Cl)cc1S(=O)(=O)Nc1ccc(F)c(-c2ccc3c(C(C)O)ncn3c2)c1F (stereo not drawn) [Compound 100, 5-chloro-N-[2,4-difluoro-3-[1-(1-hydroxyethyl)imidazo[1,5-a]pyridin-6-yl]phenyl]-2-methoxypyridine-3-sulfonamide]",–,6.00 to 6.30
"COc1ncc(C#N)cc1S(=O)(=O)Nc1ccc(F)c(-c2cn3cnc(-c4nnc(C)[nH]4)c3cn2)c1F [Compound 128, 5-cyano-N-[2,4-difluoro-3-[1-(5-methyl-4H-1,2,4-triazol-3-yl)imidazo[1,5-a]pyrazin-6-yl]phenyl]-2-methoxypyridine-3-sulfonamide]",–,6.30 to 7.30
"COc1ncc(F)cc1S(=O)(=O)Nc1ccc(F)c(-c2cn3cnc(-c4[nH]cnc4C4CC4)c3cn2)c1F [Compound 177, N-[3-[1-(5-cyclopropyl-3H-imidazol-4-yl)imidazo[1,5-a]pyrazin-6-yl]-2,4-difluorophenyl]-5-fluoro-2-methoxypyridine-3-sulfonamide]",–,6.30 to 7.30
"Cc1ncc(F)cc1S(=O)(=O)Nc1ccc(F)c(-c2ccc3c(-c4nc5c([nH]4)CCCC5)ncn3c2)c1F [Compound 149, N-(2,4-difluoro-3-(1-(4,5,6,7-tetrahydro-1H-benzo[d]imidazol-2-yl)imidazo[1,5-a]pyridin-6-yl)phenyl)-5-fluoro-2-methylpyridine-3-sulfonamide]",> 7.30,–
"O=S(=O)(Nc1ccc(F)c(-c2ccc3c(-c4ncc[nH]4)ncn3c2)c1F)c1cc(F)cc2c1CCC2O (stereo not drawn) [Compound 28, N-[2,4-difluoro-3-[1-(1H-imidazol-2-yl)imidazo[1,5-a]pyridin-6-yl]phenyl]-6-fluoro-1-hydroxy-2,3-dihydro-1H-indene-4-sulfonamide]",> 7.30,–
"COc1ncc(Cl)cc1S(=O)(=O)Nc1ccc(F)c(-c2cn3cnc(C(=O)Nc4cnoc4)c3cn2)c1F [Compound 174, 6-[3-(5-chloro-2-methoxypyridine-3-sulfonamido)-2,6-difluorophenyl]-N-(1,2-oxazol-4-yl)imidazo[1,5-a]pyrazine-1-carboxamide]",> 7.30,–
"COc1ncc(Cl)cc1S(=O)(=O)Nc1ccc(F)c([C@H]2Cn3cnc(-c4ncc[nH]4)c3CN2C)c1F [Compound 73-2, 5-chloro-N-[2,4-difluoro-3-[(6S)-1-(1H-imidazol-2-yl)-7-methyl-5H,6H,8H-imidazo[1,5-a]pyrazin-6-yl]phenyl]-2-methoxypyridine-3-sulfonamide]",–,6.30 to 7.30
"CNC(=O)c1ncn2cc(-c3c(F)ccc(NS(=O)(=O)c4cc(Cl)cnc4OC)c3C#N)ncc12 [Compound 117, 6-[3-(5-chloro-2-methoxypyridine-3-sulfonamido)-2-cyano-6-fluorophenyl]-N-methylimidazo[1,5-a]pyrazine-1-carboxamide]",–,6.30 to 7.30
"COc1ncc(Cl)cc1S(=O)(=O)Nc1ccc(F)c(-c2cn3cnc(C(=O)NCCO)c3cn2)c1F [Compound 161, 6-[3-(5-chloro-2-methoxypyridine-3-sulfonamido)-2,6-difluorophenyl]-N-(2-hydroxyethyl)imidazo[1,5-a]pyrazine-1-carboxamide]",> 7.30,–
"CNC(=O)c1ncn2cc(-c3c(F)ccc(NS(=O)(=O)c4cc(C#N)cnc4C)c3F)ccc12 [Compound 9, 6-[3-(5-cyano-2-methylpyridine-3-sulfonamido)-2,6-difluorophenyl]-N-methylimidazo[1,5-a]pyridine-1-carboxamide]",> 7.30,–
"COc1ncc(C#N)cc1S(=O)(=O)Nc1ccc(F)c(-c2cn3cnc(-c4nc5ccccc5[nH]4)c3cn2)c1F [Compound 112, N-[3-[1-(1H-1,3-benzodiazol-2-yl)imidazo[1,5-a]pyrazin-6-yl]-2,4-difluorophenyl]-5-cyano-2-methoxypyridine-3-sulfonamide]",> 7.30,–
"COc1ncc(F)cc1S(=O)(=O)Nc1ccc(F)c([C@@H]2CCc3c(-c4ncc[nH]4)ncn3C2)c1F [Compound 81-2, N-[2,4-difluoro-3-[(6S)-1-(1H-imidazol-2-yl)-5H,6H,7H,8H-imidazo[1,5-a]pyridin-6-yl]phenyl]-5-fluoro-2-methoxypyridine-3-sulfonamide]",> 7.30,–
"COc1ncc(Cl)cc1S(=O)(=O)Nc1ccc(F)c(-c2ccc3c(-c4ccn[nH]4)ncn3c2)c1F [Compound 32, 5-chloro-N-[2,4-difluoro-3-[1-(2H-pyrazol-3-yl)imidazo[1,5-a]pyridin-6-yl]phenyl]-2-methoxypyridine-3-sulfonamide]",> 7.30,–
"COc1ncc(F)cc1S(=O)(=O)Nc1ccc(F)c(-c2ccc3c(-c4nnc[nH]4)ncn3c2)c1F [Compound 70, N-[2,4-difluoro-3-[1-(4H-1,2,4-triazol-3-yl)imidazo[1,5-a]pyridin-6-yl]phenyl]-5-fluoro-2-methoxypyridine-3-sulfonamide]",> 7.30,–
"CNC(=O)c1ncn2c1CC[C@@H](c1c(F)ccc(NS(=O)(=O)c3cc(C#N)cnc3OC)c1F)C2 [Compound 68-2, (S)-6-(3-((5-cyano-2-methoxypyridine)-3-sulfonamido)-2,6-difluorophenyl)-N-methyl-5,6,7,8-tetrahydroimidazo[1,5-a]pyridine-1-carboxamide]",–,6.30 to 7.30
"COc1ncc(C#N)cc1S(=O)(=O)Nc1ccc(F)c(-c2ccc3c(-c4ncc[nH]4)ncn3n2)c1F [Compound 97, 5-cyano-N-[2,4-difluoro-3-[5-(1H-imidazol-2-yl)imidazo[1,5-b]pyridazin-2-yl]phenyl]-2-methoxypyridine-3-sulfonamide]",> 7.30,–
"CNC(=O)c1ncn2c1CN(C)[C@H](c1c(F)ccc(NS(=O)(=O)c3cc(Cl)cnc3OC)c1F)C2 (single isomer, unassigned) [Compound 33-1]",< 6.00,–
"CNC(=O)c1ncn2cc(-c3c(F)ccc(NS(=O)(=O)c4cc(Cl)cnc4OC)c3F)c(=O)n(C)c12 [Compound 22, 3-[3-(5-chloro-2-methoxypyridine-3-sulfonamido)-2,6-difluorophenyl]-N,1-dimethyl-2-oxoimidazo[1,5-a]pyrimidine-8-carboxamide]",–,6.30 to 7.30
"COc1ncc(Cl)cc1S(=O)(=O)Nc1ccc(F)c(-c2cn3cnc(C(=O)NCC(F)(F)F)c3cn2)c1F [Compound 159, 6-[3-(5-chloro-2-methoxypyridine-3-sulfonamido)-2,6-difluorophenyl]-N-(2,2,2-trifluoroethyl)imidazo[1,5-a]pyrazine-1-carboxamide]",> 7.30,–
"CNC(=O)c1ncn2cc(-c3c(Cl)ccc(NS(=O)(=O)c4cc(Cl)cnc4OC)c3F)ncc12 [Compound 141, 6-(6-chloro-3-((5-chloro-2-methoxypyridine)-3-sulfonamido)-2-fluorophenyl)-N-methylimidazo[1,5-a]pyrazine-1-carboxamide]",> 7.30,–
"CNC(=O)c1ncn2c(C)c(-c3c(F)ccc(NS(=O)(=O)c4cc(Cl)cnc4OC)c3F)ccc12 [Compound 11, 6-[3-(5-chloro-2-methoxypyridine-3-sulfonamido)-2,6-difluorophenyl]-N,5-dimethyl imidazo[1,5-a]pyridine-1-carboxamide]",–,6.30 to 7.30
"CNC(=O)c1ncn2cc(-c3c(F)ccc(NS(=O)(=O)c4cc(Cl)cnc4OC)c3Cl)ccc12 [Compound 101, 6-(2-chloro-3-((5-chloro-2-methoxypyridine)-3-sulfonamido)-6-fluorophenyl)-N-methylimidazo[1,5-a]pyridine-1-carboxamide]",> 7.30,–
"COc1ncc(Cl)cc1S(=O)(=O)Nc1ccc(F)c([C@@H]2Cn3cnc(-c4ncc[nH]4)c3CN2C)c1F [Compound 73-1, 5-chloro-N-[2,4-difluoro-3-[(6R)-1-(1H-imidazol-2-yl)-7-methyl-5H,6H,8H-imidazo[1,5-a]pyrazin-6-yl]phenyl]-2-methoxypyridine-3-sulfonamide]",–,6.30 to 7.30
"COc1ncc(Cl)cc1S(=O)(=O)Nc1ccc(F)c(-c2cn3cnc(C(=O)NCCN4CCCC4=O)c3cn2)c1F [Compound 180, 6-[3-(5-chloro-2-methoxypyridine-3-sulfonamido)-2,6-difluorophenyl]-N-[2-(2-oxopyrrolidin-1-yl)ethyl]imidazo[1,5-a]pyrazine-1-carboxamide]",–,6.30 to 7.30
"CNC(=O)c1ncn2cc(-c3c(F)ccc(NS(=O)(=O)c4cc(C#N)cnc4OC)c3F)ncc12 [Compound 92, 6-[3-(5-cyano-2-methoxypyridine-3-sulfonamido)-2,6-difluorophenyl]-N-methylimidazo[1,5-a]pyrazine-1-carboxamide]",–,6.30 to 7.30
"CNC(=O)c1ncn2c(OC)c(-c3c(F)ccc(NS(=O)(=O)c4cc(Cl)cnc4OC)c3F)ccc12 [Compound 15, 6-[3-(5-chloro-2-methoxypyridine-3-sulfonamido)-2,6-difluorophenyl]-5-methoxy-N-methylimidazo[1,5-a]pyridine-1-carboxamide]",< 6.00,–

# Reference: patent publication US20240083897A1, “GCN2 MODULATING COMPOUNDS AND USES THEREOF” (HiberCell, Inc., priority 2021, published 2024)
